These are literature values, as cited in patent US20260174720A1, “NERVONIC ACID COMPOSITION FOR IMPROVING MEMORY-BASED LEARNING FUNCTION AND A PREPARATION METHOD THEREOF” (Guangzhou Decade Nutrition Technology Co., Ltd., priority 2024, published 2026).

For the molecule `CCCCCCCC/C=C\CCCCCCCCCCCCCC(=O)O` [Nervonic acid, cis-15-Tetracosenic Acid], the “solubility in alcohols such as methanol, ethanol” value is listed as “soluble in alcohols”. For the same molecule, the solubility in water result (room temperature) was “insoluble in water”.
